Source: patent US20160158317A1, “Antimicrobial Peptide Variants and Polynucleotides Encoding Same” (Adenium Biotech A/S, priority 2010, published 2016)
Where a SMILES comes first, the peptide text is derived from it. Bridges are numbered along the chain shown (N, C = ends).

Test: Determination of the protein binding (90% serum, 30 kDa filter, HPLC)
Format: in vitro ADME
Conditions: serum
Description: Protein binding assays were performed as follows. The purified peptides were mixed with 90% serum and centrifuged through a 30 kDa filter. The ultra-filtrate and the non filtrated serum samples were quantified by HPLC measurements and the protein binding was subsequently calculated.

SMILES	fraction unbound
CC(C)[C@@H]1NC(=O)[C@@H]2CSSC[C@H](NC(=O)[C@H](CO)NC(=O)[C@H](CCCNC(=N)N)NC(=O)[C@H](C)NC(=O)CNC(=O)[C@H](CC(N)=O)NC(=O)[C@H](CCCNC(=N)N)NC(=O)[C@H](Cc3ccc(O)cc3)NC1=O)C(=O)N[C@@H](Cc1ccc(O)cc1)C(=O)N[C@@H](CCCNC(=N)N)C(=O)N[C@@H](CCCNC(=N)N)C(=O)N[C@H](C(=O)N[C@@H](CC(N)=O)C(=O)O)CSSC[C@H](NC(=O)[C@H](Cc1ccccc1)NC(=O)CN)C(=O)N[C@@H](Cc1c[nH]c3ccccc13)C(=O)N[C@@H](Cc1c[nH]cn1)C(=O)N[C@@H](C(C)C)C(=O)N2 [compound 213] (H-GFCWHVCVYRNGARSCYRRCN-OH; disulfide 3-20, 7-16 (inferred); N-terminus and C-terminus assumed)	0.05
CC(C)[C@@H]1NC(=O)CNC(=O)[C@H](CC(N)=O)NC(=O)[C@H](CCCNC(=N)N)NC(=O)[C@H](CCCNC(=N)N)NC(=O)[C@H](C)NC(=O)[C@@H]2CSSC[C@H](NC(=O)[C@H](C(C)C)NC(=O)[C@H](CCCNC(=N)N)NC1=O)C(=O)N[C@@H](Cc1ccc(O)cc1)C(=O)N[C@@H](CCCNC(=N)N)C(=O)N[C@@H](CCCNC(=N)N)C(=O)N[C@H](C(=O)N[C@@H](CC(N)=O)C(=O)O)CSSC[C@H](NC(=O)[C@H](Cc1ccccc1)NC(=O)CN)C(=O)N[C@@H](Cc1c[nH]c3ccccc13)C(=O)N[C@@H](Cc1c[nH]cn1)C(=O)N[C@@H](C(C)C)C(=O)N2 [compound 218] (H-GFCWHVCARRNGVRVCYRRCN-OH; disulfide 3-20, 7-16 (inferred); N-terminus and C-terminus assumed)	0.01
CC(C)[C@@H]1NC(=O)[C@H](Cc2c[nH]cn2)NC(=O)[C@H](Cc2c[nH]c3ccccc23)NC(=O)[C@@H](NC(=O)[C@H](Cc2ccccc2)NC(=O)CN)CSSC[C@@H](C(=O)N[C@@H](CC(N)=O)C(=O)O)NC(=O)[C@H](CCCNC(=N)N)NC(=O)[C@H](CCCNC(=N)N)NC(=O)[C@H](Cc2ccc(O)cc2)NC(=O)[C@@H]2CSSC[C@H](NC1=O)C(=O)N[C@@H](Cc1c[nH]cn1)C(=O)N[C@@H](Cc1ccc(O)cc1)C(=O)N[C@@H](CCCNC(=N)N)C(=O)N[C@@H](CC(N)=O)C(=O)N[C@@H](CO)C(=O)N[C@@H](C(C)C)C(=O)N[C@@H](CCCNC(=N)N)C(=O)N[C@@H](C(C)C)C(=O)N2 [compound 219] (H-GFCWHVCHYRNSVRVCYRRCN-OH; disulfide 3-20, 7-16 (inferred); N-terminus and C-terminus assumed)	0.01
CC(C)[C@@H]1NC(=O)[C@@H]2CSSC[C@H](NC(=O)[C@H](C(C)C)NC(=O)[C@H](CCCNC(=N)N)NC(=O)[C@H](C(C)C)NC(=O)[C@H](CCCCN)NC(=O)[C@H](CC(N)=O)NC(=O)[C@H](CCCNC(=N)N)NC(=O)[C@H](Cc3ccc(O)cc3)NC1=O)C(=O)N[C@@H](Cc1c[nH]cn1)C(=O)N[C@@H](CCCNC(=N)N)C(=O)N[C@@H](CCCNC(=N)N)C(=O)N[C@H](C(=O)N[C@@H](CC(N)=O)C(=O)O)CSSC[C@H](NC(=O)[C@H](Cc1ccccc1)NC(=O)CN)C(=O)N[C@@H](Cc1c[nH]c3ccccc13)C(=O)N[C@@H](CC(N)=O)C(=O)N[C@@H](C(C)C)C(=O)N2 [compound 227] (H-GFCWNVCVYRNKVRVCHRRCN-OH; disulfide 3-20, 7-16 (inferred); N-terminus and C-terminus assumed)	0.2
CC(C)[C@@H]1NC(=O)[C@@H]2CSSC[C@H](NC(=O)[C@H](C(C)C)NC(=O)[C@H](CCCNC(=N)N)NC(=O)[C@H](C(C)C)NC(=O)[C@H](CCCNC(=N)N)NC(=O)[C@H](CC(N)=O)NC(=O)[C@H](CCCNC(=N)N)NC(=O)[C@H](Cc3ccc(O)cc3)NC1=O)C(=O)N[C@@H](Cc1c[nH]cn1)C(=O)N[C@@H](CCCNC(=N)N)C(=O)N[C@@H](CCCNC(=N)N)C(=O)N[C@H](C(=O)N[C@@H](CC(N)=O)C(=O)O)CSSC[C@H](NC(=O)[C@H](Cc1ccccc1)NC(=O)CN)C(=O)N[C@@H](Cc1c[nH]c3ccccc13)C(=O)N[C@@H](CC(N)=O)C(=O)N[C@@H](C(C)C)C(=O)N2 [compound 228] (H-GFCWNVCVYRNRVRVCHRRCN-OH; disulfide 3-20, 7-16 (inferred); N-terminus and C-terminus assumed)	0.14
CC(C)[C@@H]1NC(=O)[C@@H]2CSSC[C@H](NC(=O)[C@H](C(C)C)NC(=O)[C@H](CCCNC(=N)N)NC(=O)[C@H](C(C)C)NC(=O)[C@H](Cc3ccc(O)cc3)NC(=O)[C@H](CC(N)=O)NC(=O)[C@H](CCCNC(=N)N)NC(=O)[C@H](Cc3ccc(O)cc3)NC1=O)C(=O)N[C@@H](Cc1c[nH]cn1)C(=O)N[C@@H](CCCNC(=N)N)C(=O)N[C@@H](CCCNC(=N)N)C(=O)N[C@H](C(=O)N[C@@H](CC(N)=O)C(=O)O)CSSC[C@H](NC(=O)[C@H](Cc1ccccc1)NC(=O)CN)C(=O)N[C@@H](Cc1c[nH]c3ccccc13)C(=O)N[C@@H](CC(N)=O)C(=O)N[C@@H](C(C)C)C(=O)N2 [compound 229] (H-GFCWNVCVYRNYVRVCHRRCN-OH; disulfide 3-20, 7-16 (inferred); N-terminus and C-terminus assumed)	0.09
CC(C)[C@@H]1NC(=O)CNC(=O)[C@H](C)NC(=O)[C@H](CCCNC(=N)N)NC(=O)[C@H](Cc2ccc(O)cc2)NC(=O)[C@H](C(C)C)NC(=O)[C@@H]2CSSC[C@H](NC(=O)[C@H](C(C)C)NC(=O)[C@H](CCCNC(=N)N)NC1=O)C(=O)N[C@@H](Cc1c[nH]cn1)C(=O)N[C@@H](CCCNC(=N)N)C(=O)N[C@@H](CCCNC(=N)N)C(=O)N[C@H](C(=O)N[C@@H](CC(N)=O)C(=O)O)CSSC[C@H](NC(=O)[C@H](Cc1ccccc1)NC(=O)CN)C(=O)N[C@@H](Cc1c[nH]c3ccccc13)C(=O)N[C@@H](CC(N)=O)C(=O)N[C@@H](C(C)C)C(=O)N2 [compound 230] (H-GFCWNVCVYRAGVRVCHRRCN-OH; disulfide 3-20, 7-16 (inferred); N-terminus and C-terminus assumed)	0.29
CC(C)[C@@H]1NC(=O)CNC(=O)CNC(=O)[C@H](CCCNC(=N)N)NC(=O)[C@H](Cc2ccc(O)cc2)NC(=O)[C@H](C(C)C)NC(=O)[C@@H]2CSSC[C@H](NC(=O)[C@H](C(C)C)NC(=O)[C@H](CCCNC(=N)N)NC1=O)C(=O)N[C@@H](Cc1c[nH]cn1)C(=O)N[C@@H](CCCNC(=N)N)C(=O)N[C@@H](CCCNC(=N)N)C(=O)N[C@H](C(=O)N[C@@H](CC(N)=O)C(=O)O)CSSC[C@H](NC(=O)[C@H](Cc1ccccc1)NC(=O)CN)C(=O)N[C@@H](Cc1c[nH]c3ccccc13)C(=O)N[C@@H](CC(N)=O)C(=O)N[C@@H](C(C)C)C(=O)N2 [compound 231] (H-GFCWNVCVYRGGVRVCHRRCN-OH; disulfide 3-20, 7-16 (inferred); N-terminus and C-terminus assumed)	0.34
CC(C)[C@@H]1NC(=O)CNC(=O)[C@H](Cc2c[nH]cn2)NC(=O)[C@H](CCCNC(=N)N)NC(=O)[C@H](Cc2ccc(O)cc2)NC(=O)[C@H](C(C)C)NC(=O)[C@@H]2CSSC[C@H](NC(=O)[C@H](C(C)C)NC(=O)[C@H](CCCNC(=N)N)NC1=O)C(=O)N[C@@H](Cc1c[nH]cn1)C(=O)N[C@@H](CCCNC(=N)N)C(=O)N[C@@H](CCCNC(=N)N)C(=O)N[C@H](C(=O)N[C@@H](CC(N)=O)C(=O)O)CSSC[C@H](NC(=O)[C@H](Cc1ccccc1)NC(=O)CN)C(=O)N[C@@H](Cc1c[nH]c3ccccc13)C(=O)N[C@@H](CC(N)=O)C(=O)N[C@@H](C(C)C)C(=O)N2 [compound 232] (H-GFCWNVCVYRHGVRVCHRRCN-OH; disulfide 3-20, 7-16 (inferred); N-terminus and C-terminus assumed)	0.15
CC(C)[C@@H]1NC(=O)CNC(=O)[C@H](CCC(N)=O)NC(=O)[C@H](CCCNC(=N)N)NC(=O)[C@H](Cc2ccc(O)cc2)NC(=O)[C@H](C(C)C)NC(=O)[C@@H]2CSSC[C@H](NC(=O)[C@H](C(C)C)NC(=O)[C@H](CCCNC(=N)N)NC1=O)C(=O)N[C@@H](Cc1c[nH]cn1)C(=O)N[C@@H](CCCNC(=N)N)C(=O)N[C@@H](CCCNC(=N)N)C(=O)N[C@H](C(=O)N[C@@H](CC(N)=O)C(=O)O)CSSC[C@H](NC(=O)[C@H](Cc1ccccc1)NC(=O)CN)C(=O)N[C@@H](Cc1c[nH]c3ccccc13)C(=O)N[C@@H](CC(N)=O)C(=O)N[C@@H](C(C)C)C(=O)N2 [compound 233] (H-GFCWNVCVYRQGVRVCHRRCN-OH; disulfide 3-20, 7-16 (inferred); N-terminus and C-terminus assumed)	0.22
CC(C)[C@@H]1NC(=O)CNC(=O)[C@H](CCCNC(=N)N)NC(=O)[C@H](CCCNC(=N)N)NC(=O)[C@H](Cc2ccc(O)cc2)NC(=O)[C@H](C(C)C)NC(=O)[C@@H]2CSSC[C@H](NC(=O)[C@H](C(C)C)NC(=O)[C@H](CCCNC(=N)N)NC1=O)C(=O)N[C@@H](Cc1c[nH]cn1)C(=O)N[C@@H](CCCNC(=N)N)C(=O)N[C@@H](CCCNC(=N)N)C(=O)N[C@H](C(=O)N[C@@H](CC(N)=O)C(=O)O)CSSC[C@H](NC(=O)[C@H](Cc1ccccc1)NC(=O)CN)C(=O)N[C@@H](Cc1c[nH]c3ccccc13)C(=O)N[C@@H](CC(N)=O)C(=O)N[C@@H](C(C)C)C(=O)N2 [compound 234] (H-GFCWNVCVYRRGVRVCHRRCN-OH; disulfide 3-20, 7-16 (inferred); N-terminus and C-terminus assumed)	0.14
CC(C)[C@@H]1NC(=O)[C@H](CCCNC(=N)N)NC(=O)[C@H](C)NC(=O)CNC(=O)[C@H](CC(N)=O)NC(=O)[C@H](CCCNC(=N)N)NC(=O)[C@H](Cc2ccc(O)cc2)NC(=O)[C@H](C(C)C)NC(=O)[C@@H]2CSSC[C@H](NC1=O)C(=O)N[C@@H](Cc1c[nH]cn1)C(=O)N[C@@H](CCCNC(=N)N)C(=O)N[C@@H](CCCNC(=N)N)C(=O)N[C@H](C(=O)N[C@@H](CC(N)=O)C(=O)O)CSSC[C@H](NC(=O)[C@H](Cc1ccccc1)NC(=O)CN)C(=O)N[C@@H](Cc1c[nH]c3ccccc13)C(=O)N[C@@H](CC(N)=O)C(=O)N[C@@H](C(C)C)C(=O)N2 [compound 235] (H-GFCWNVCVYRNGARVCHRRCN-OH; disulfide 3-20, 7-16 (inferred); N-terminus and C-terminus assumed)	0.36
